Measured values: patent publication US20050106582A1, “Compositions and methods utilizing stable reporter cell lines for detection of CREB-dependent signal transduction” (Stratagene, priority 1999, published 2005)
Where two headings read alike, the source gives them in different places.

Tests used:
GAL4-CREB [1] = assay: Luciferase reporter assay in RCLH-CREB stable cells treated with extracellular stimuli; assay type: cell-based, human; conditions: 5 hours
GAL4-CREB [2] = assay type: cell-based, human; conditions: transient assays, 10 ug/ml; data not shown

Row | Compound | stimulation of luciferase expression (GAL4-CREB [1]; in the presence of 100 uM forskolin) | stimulation of luciferase expression (GAL4-CREB [2]) | effect on luciferase expression (GAL4-CREB [1]; 50 ug/ml)
1 | CCCCCCCCCCCCCC(=O)O[C@@H]1[C@@H](C)[C@@]2(O)[C@@H](C=C(CO)C[C@]3(O)C(=O)C(C)=C[C@@H]23)[C@@H]2C(C)(C)[C@]12OC(C)=O [PMA, phorbol-12-myristate-13-acetate] | approximately 70 fold |  | 
2 | adenylate cyclase toxin [AC toxin] |  | 13 fold | approximately 7 fold
